As usually defined, the pIC50 is the negative decadic logarithm of the IC50, by convention in mol/L. High values mean a low IC50, low ones a high IC50. As a reminder, the half-life is the time in which the quantity being followed falls by half. A low value points to rapid decline. The microsomal CLint is the rate of metabolic loss divided by the concentration.

Data set [1] concerns the target T1, Cytochrome P450 1A2 (Homo sapiens, UniProt P05177).
T1 sequence (P05177 whole entry): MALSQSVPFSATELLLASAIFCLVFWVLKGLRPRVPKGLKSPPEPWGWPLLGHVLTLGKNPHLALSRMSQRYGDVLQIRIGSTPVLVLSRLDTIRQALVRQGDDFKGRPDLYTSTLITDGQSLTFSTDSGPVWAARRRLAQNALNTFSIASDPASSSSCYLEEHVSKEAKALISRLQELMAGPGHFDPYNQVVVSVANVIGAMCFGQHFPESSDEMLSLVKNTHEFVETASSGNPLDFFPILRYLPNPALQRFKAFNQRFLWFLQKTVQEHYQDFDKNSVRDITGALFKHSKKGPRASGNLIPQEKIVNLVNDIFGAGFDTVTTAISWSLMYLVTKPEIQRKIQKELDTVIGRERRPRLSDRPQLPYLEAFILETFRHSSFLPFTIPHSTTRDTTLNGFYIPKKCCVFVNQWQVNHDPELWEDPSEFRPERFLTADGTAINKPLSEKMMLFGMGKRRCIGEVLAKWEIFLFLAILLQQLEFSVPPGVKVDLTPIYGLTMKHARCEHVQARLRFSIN
Briefly: Inhibition of CYP1A2 in human liver microsomes using phenacetin preincubated for 5 mins by LC-MS/MS analysis.

A short description of data set [2]: Half life in human liver microsomes by LC-MS/MS analysis.
Data set [3] in a line: Apparent intrinsic clearance in human liver microsomes by LC-MS/MS analysis.
The target in data set [4] is Cytochrome P450 2D6 (Homo sapiens, UniProt P10635). Briefly: Inhibition of CYP2D6 in human liver microsomes using dextromethorphan as substrate preincubated for 5 mins by LC-MS/MS analysis. (In general: Microsomes from liver hold many membrane-bound enzymes, among them those of drug oxidation.)
Sequence of Cytochrome P450 2D6 (P10635 whole entry): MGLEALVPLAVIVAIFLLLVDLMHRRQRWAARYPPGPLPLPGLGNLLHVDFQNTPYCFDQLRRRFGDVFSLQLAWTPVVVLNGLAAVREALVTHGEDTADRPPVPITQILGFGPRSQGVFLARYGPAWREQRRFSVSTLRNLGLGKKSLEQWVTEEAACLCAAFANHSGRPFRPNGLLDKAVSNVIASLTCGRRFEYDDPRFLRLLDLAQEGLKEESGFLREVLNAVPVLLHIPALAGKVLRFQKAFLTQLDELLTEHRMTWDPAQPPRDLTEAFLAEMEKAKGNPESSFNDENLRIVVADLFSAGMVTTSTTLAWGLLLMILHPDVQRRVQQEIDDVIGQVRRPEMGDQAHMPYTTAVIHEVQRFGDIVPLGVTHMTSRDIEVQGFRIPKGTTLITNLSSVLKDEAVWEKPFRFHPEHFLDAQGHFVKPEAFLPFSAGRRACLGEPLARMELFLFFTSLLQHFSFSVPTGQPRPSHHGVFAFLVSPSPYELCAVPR
Data set [5] has as its target T2, Cytochrome P450 2C8 (Homo sapiens, UniProt P10632).
T2 sequence (P10632 whole entry): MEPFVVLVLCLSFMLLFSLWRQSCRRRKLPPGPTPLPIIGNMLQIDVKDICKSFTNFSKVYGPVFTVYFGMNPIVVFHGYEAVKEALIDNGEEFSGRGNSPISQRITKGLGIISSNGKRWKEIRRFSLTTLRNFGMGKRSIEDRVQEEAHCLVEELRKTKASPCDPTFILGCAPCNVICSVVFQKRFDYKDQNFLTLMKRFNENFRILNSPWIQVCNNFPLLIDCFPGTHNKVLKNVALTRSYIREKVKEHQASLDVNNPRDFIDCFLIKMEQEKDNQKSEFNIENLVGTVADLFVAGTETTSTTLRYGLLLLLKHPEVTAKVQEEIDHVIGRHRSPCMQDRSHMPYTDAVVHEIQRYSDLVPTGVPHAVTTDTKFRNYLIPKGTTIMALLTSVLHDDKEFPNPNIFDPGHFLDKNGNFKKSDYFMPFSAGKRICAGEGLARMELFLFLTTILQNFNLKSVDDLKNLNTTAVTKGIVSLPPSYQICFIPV
Briefly: Inhibition of CYP2C8 in human liver microsomes using paclitaxel as substrate preincubated for 5 mins by LC-MS/MS analysis.

The target of data set [6] is T3, Cytochrome P450 2B6 (Homo sapiens, UniProt P20813).
T3 sequence (P20813 whole entry): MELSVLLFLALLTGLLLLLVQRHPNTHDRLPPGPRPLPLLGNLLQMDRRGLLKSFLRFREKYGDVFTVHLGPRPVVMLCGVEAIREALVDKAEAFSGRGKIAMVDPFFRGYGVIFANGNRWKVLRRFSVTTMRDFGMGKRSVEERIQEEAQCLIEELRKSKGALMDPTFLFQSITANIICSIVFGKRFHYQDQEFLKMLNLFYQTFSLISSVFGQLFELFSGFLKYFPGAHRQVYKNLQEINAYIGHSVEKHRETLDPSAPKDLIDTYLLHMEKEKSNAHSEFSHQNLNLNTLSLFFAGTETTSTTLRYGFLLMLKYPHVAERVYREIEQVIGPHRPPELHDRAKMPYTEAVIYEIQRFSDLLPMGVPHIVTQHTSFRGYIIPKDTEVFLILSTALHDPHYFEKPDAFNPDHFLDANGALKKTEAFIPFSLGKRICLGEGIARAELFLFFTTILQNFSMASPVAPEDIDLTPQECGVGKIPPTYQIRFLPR
Briefly: Inhibition of CYP2B6 in human liver microsomes using bupropion as substrate preincubated for 5 mins by LC-MS/MS analysis.

Data set [7] addresses Cytochrome P450 2E1 (Homo sapiens, UniProt P05181). Briefly: Inhibition of CYP2E1 in human liver microsomes using chlorzoxazone as substrate preincubated for 5 mins by LC-MS/MS analysis.

pIC50: −log10 of the molar value.

Sequence of Cytochrome P450 2E1 (P05181 whole entry): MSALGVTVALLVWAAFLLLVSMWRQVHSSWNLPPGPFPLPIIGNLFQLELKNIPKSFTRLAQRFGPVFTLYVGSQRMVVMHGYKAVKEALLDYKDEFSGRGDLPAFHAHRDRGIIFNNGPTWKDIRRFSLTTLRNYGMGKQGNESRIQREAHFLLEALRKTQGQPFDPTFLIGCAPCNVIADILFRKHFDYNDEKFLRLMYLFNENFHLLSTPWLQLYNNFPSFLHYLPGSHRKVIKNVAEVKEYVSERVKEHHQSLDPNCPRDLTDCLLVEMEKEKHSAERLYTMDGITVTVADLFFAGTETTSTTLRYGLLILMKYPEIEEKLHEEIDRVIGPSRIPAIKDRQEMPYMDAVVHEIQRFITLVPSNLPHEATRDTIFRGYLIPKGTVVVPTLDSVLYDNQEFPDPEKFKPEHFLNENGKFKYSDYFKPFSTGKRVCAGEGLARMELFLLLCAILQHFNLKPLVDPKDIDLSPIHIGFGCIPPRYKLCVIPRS

On to `CCCSc1nc2ccc(OC)cc2[nH]1`, for which the pIC50 in data set [1] was 6.03; in data set [4], 5.71; in data set [5], 5.51. The half-life in data set [2] (microsomes) turned out to be 0.16 h. For the same molecule, in data set [3] (microsomes), the intrinsic metabolic clearance (microsomal CLint) was found to be 724 µL/min/mg.

`COc1ccc2[nH]c(SCCCC(=O)O)nc2c1`: the half-life in data set [2] (liver microsomes) stood at 2 h. The molecule also showed a negative logarithm of the IC50 (pIC50) in data set [6] of 4.54. The intrinsic metabolic clearance (microsomal CLint) in data set [3] (liver microsomes) is below 57.8 µL/min/mg.

The molecule `COc1ccc2[nH]c(SCc3ccccc3)nc2c1` returned a half-life in data set [2] (microsomes) of 2 h. In addition, the negative logarithm of the IC50 (pIC50) in data set [6], in data set [5] and in data set [7] was below 4.30 in each case. Also, the intrinsic metabolic clearance (microsomal CLint) in data set [3] (microsomes) is below 57.8 µL/min/mg.

On to `COc1ccc2nc(SCc3ccc(C(=O)O)cc3)[nH]c2c1`, for which the half-life in data set [2] (liver microsomes) amounted to 0.134 h. Further, in data set [3] (liver microsomes), the intrinsic clearance (microsomal CLint) was found to be 860 µL/min/mg.
